According to US10465167B2, “Adjuvant for rapid proliferation of human mesenchymal stem cells in vitro, method for rapid proliferation of human mesenchymal stem cells in vitro, method for growth factor harvested from rapid proliferation of human mesenchymal stem cells in vitro and use thereof” (BUDDHIST TZU CHI MEDICAL FOUNDATION, priority 2013, dated 2019):

Columns and labels:
[1] = test system: adipose tissue-derived stem cells; assay: Western Blot of p21 and CDK2 proteins, normal vs high oxygen; format: cell-based, human; settings: high oxygen environment (37.5%); FIG. 4B
Text: The culture conditions of the adipose tissue-derived stem cell are divided into four groups as described in the aforementioned section 5. The Western Blot Analysis is used for the analysis to observe the effect of the controlling and adjusting the cell cycle related proteins of the adipose tissue-derived stem cells cultured in different culture conditions on the protein expression of the cell cycle related proteins (such as p21 and CDK2). Similarly, the expression of the β-actin protein is used as a control for the standardization of quantifying each aforementioned protein expression into data.

[2] = test system: adipose tissue-derived stem cells; assay: Cell growth density analysis, normal vs high oxygen environment; format: cell-based, human; settings: high oxygen environment (37.5%), seventh day; FIG. 4A
Text: In this experiment, the culture conditions are divided into four groups, respectively: a culture group with a basic medium and FGF-2 in a normal oxygen environment, a culture group with a basic medium and FGF-2 in a high oxygen environment, a culture group with a basic medium and the adjuvant of the present invention in a normal oxygen environment, and a culture group with a basic medium and the adjuvant of the present invention in a high oxygen environment, wherein the high oxygen environment refers to a partial pressure of oxygen approximately equal to 37.5%, and parameters of the culture conditions (such as a basic medium, an incubator and a cell culture density) are the same as described in Section 1 of the aforementioned Experiment 1.
The cells are cleaned once by a phosphate buffer solution (PBS), and then reacted with a Trypsin-EDTA solution at 37 degrees Celsius for 5 minutes, and then the cell spatula is used to remove incompletely reacted cells carefully, and the same proportion of a medium containing a fetal bovine serum is used for neutralizing the enzyme activity of trypsin. The number of cells is measured by a cell counter (Vi-CELL AS, Beckman Coulter). […] Each set of experiment data is measured for three times, and the result is expressed in term of mean± standard deviation.

FGF-2: basic fibroblast growth factor, concentration of 10 ng/mL (R&D Systems), comparison culture additive
expression of the p21 protein [1]: significant increase of the expression of the p21 protein | total number of cells [2]: below 2.5×10^6
